Source: ChEMBL document CHEMBL3507680, “University of Dundee, Gates Library screen for HepG2 cell viability”

Assay: Human HepG2 cell viability assay in 384 well format
Format: toxicity, cell-based
Set-up: dose 125 nL, time 70.5 hour; concentration not given beside the values
Conditions: HepG2 cells, read-out: Inhibition

Compound | cytotoxicity at 70.5 h [%]
O=S(=O)(CCN1CCN(c2ccccc2O)CC1)c1ccc(Cl)cc1 | -14.3
Cn1c(C2CC2)nc2c1CCN(Cc1nc3ccccc3s1)C2 | 23.2
O=C1N(CC2CC2)C(c2cncs2)NC12CCCC2 (stereo not given) | -4.01
COc1ccccc1N1CCN(CC(=O)NC(C)c2ccco2)CC1 (stereo not given) | -5.63
O=C1CCCN1Cc1ccc(C(=O)N2CCCC2c2cccs2)cc1 (stereo not given) | -6.75
CC(NC(=O)CN1CCN(c2ccncc2Cl)CC1)c1ccco1 (stereo not given) | -7.35
CCc1ccc(C(COC)NC(=O)c2ccc(F)c(NC(C)=O)c2)o1 (stereo not given) | 23.6
CCN(Cc1ccco1)C(C)c1nc(C)no1 (stereo not given) | -2.63
CCN(Cc1ccco1)C(C)c1nc(C(C)C)no1 (stereo not given) | -3.54
COc1ccnc(NC(Cc2ccccc2)C(N)=O)n1 (stereo not given) | -3.74
CCOc1ccc(CNC(C)c2c(C)nn(C)c2C)cc1 (stereo not given) | 20.4
Cc1nc(CN2CCCN(CCCc3ccccc3)CC2)no1 | -7.12
CC(c1ccc(S(C)(=O)=O)cc1)N(C)C(=O)c1ccccc1I (stereo not given) | -4.13
CCOc1ccccc1C(=O)N(C)C(C)c1ccc(S(C)(=O)=O)cc1 (stereo not given) | -6.38
Cc1ccc(N(CC(=O)N2CCCCC2)C(=O)C2COCCO2)cc1 (stereo not given) | -2.98
CC1CCCN(CCCNC(=O)Cc2csc(-c3ccoc3)n2)C1 (stereo not given) | -3.83
Cc1nc(CN2CCN(CCCc3nc4ccccc4o3)CC2)no1 | -0.419
Cc1nn(C)c(C)c1C(C)NCc1ccc(OC(C)C)cc1 (stereo not given) | -1.94
Cc1nc(CN2CCN(CCCc3ccccc3)CC2)no1 | 1.83
Cc1cccc(N(CC(=O)N2CCCCC2)C(=O)C2CCCO2)c1 (stereo not given) | 2.3
CSCc1cc(F)ccc1CNC(=O)N1CCCC1 | -4.58
O=C(c1csc(-c2ccco2)n1)N1CCOc2ncccc21 | 0.101

Compound | cytotoxicity at 70.5 h [%]
COc1cccc(-c2cnc(CNC(C)(C)c3nc(C)cs3)o2)c1 | -4.32
Cc1noc(C(C)N(C)Cc2ccco2)n1 (stereo not given) | -6.09
CCCc1noc(C(C)N(CC)Cc2ccco2)n1 (stereo not given) | 7.58
CCN(Cc1ccco1)C(C)c1nc(C(C)(C)C)no1 (stereo not given) | -3.44
Cc1cscc1-c1nc(C2CCOC2)no1 (stereo not given) | -5.31
COCCSCC(=O)NCc1ccc(N(C)C)nc1 | -4.15
CSCc1cc(F)ccc1CNC(=O)N1CCC[C@@H]1CO | -4.06
CSCc1cc(F)ccc1CNC(=O)N1CCOCC1 | -10.7
CSCc1cc(F)ccc1CNC(=O)N1CCCC(CO)C1 (stereo not given) | -7.73
CCc1nc(C)c(C(C)N(C)CCc2ccccn2)s1 (stereo not given) | 9.61
COc1ccc(CN(C(=O)C(C)SC)c2cnn(C)c2)c(OC)c1 (stereo not given) | 1.09
COc1ccc(S(=O)(=O)C(F)(F)F)cc1NC(=O)CSCC#N | 1.04
O=C(C1CCCO1)N1CCC(c2nc(-c3ccccc3)n[nH]2)CC1 (stereo not given) | 1.35
Cc1ccccc1CC(C)(C)NC(=O)COc1cccc(C(N)=O)c1 | -0.108
CCOc1ccccc1C(=O)N1CCn2c(nnc2C(F)(F)F)C1 | -1.86
COc1ccc(CN(C(=O)C(C)C)c2cnn(C)c2)c(OC)c1 | -1.23
Cc1nccn1-c1ccc(C(C)NCc2ncc[nH]2)cc1 (stereo not given) | 12.6
FCCOc1cccc(NCc2c[nH]nc2-c2cccnc2)c1 | -3.33
CCN(CC)S(=O)(=O)c1ccc(OC)c(NC(=O)CSC)c1 | 12.2
CC1CCCN(CCCNC(=O)c2cn(C)nc2-c2cccnc2)C1 (stereo not given) | -2.34
COCC(=O)NS(=O)(=O)c1ccc(F)c(F)c1 | -2.65
CCCN1CCCC1c1nc(Cc2ccc(F)cc2)no1 (stereo not given) | 15.1

Compound | cytotoxicity at 70.5 h [%]
COc1cc(C)sc1C(=O)NCCC(=O)N(C)Cc1ccccc1 | -3.28
CC(=O)N1CCCN(S(=O)(=O)c2cc3ccccc3o2)CC1 | 0.284
Cn1cc(C(=O)NCCCN2CCCCCC2=O)c(-c2cccnc2)n1 | 11
COc1cc(C)sc1C(=O)NCCC(=O)N(C)c1ccccc1 | -2.86
Cc1noc(C)c1CNC(C)c1ccc(S(=O)(=O)N(C)C)cc1 (stereo not given) | -2.42
CCCNC(=O)CN1CCCC1c1nc(Cc2ccc(F)cc2)no1 (stereo not given) | -4.46
O=C(NCCc1cccnc1)NC1CCOC2(CCCCC2)C1 (stereo not given) | 17.8
Cc1cc(C(=O)Nc2ccc(CN3CCOCC3)cn2)n(C)n1 | -5.67
Cc1nc(CNCC2CCCN(C(=O)OC(C)(C)C)C2)cs1 (stereo not given) | 27.5
COc1ccc(OCCNC(=O)c2ccc3c(=O)[nH][nH]c(=O)c3c2)cc1 | -0.259
O=C(NC1CCS(=O)(=O)c2ccccc21)c1cccs1 (stereo not given) | -7.77
CC(C)(CNC(=O)C1CCCN1S(C)(=O)=O)N1CCOCC1 (stereo not given) | -11
CCC(=O)Nc1ncn(Cc2cccnc2)n1 | 15.8
CCOCCCC(=O)NCc1ccc(N2CCCCC2)cc1 | -11.1
CC(C)CCn1ccc(NC(=O)N2CCCC2CN2CCOCC2)n1 (stereo not given) | -7.64
O=C(COc1ccc(-c2ccccc2)nc1)NCC1CC1 | -5.26
CNC(=O)COc1ccc(-c2ccccc2)nc1 | -7.98
CC(C)c1nnc2n1CCN(c1nn3cc(C(C)(C)C)nc3s1)C2 | -8.04
Cc1ccc(C2CN(c3nnc(C(F)F)s3)CCO2)c(C)c1 (stereo not given) | -4.44
CN(C)C(=O)Cn1cc(C(=O)NCCc2ccc(Cl)cc2Cl)nn1 | -0.867
Cc1c(C(=O)NCCC(=O)N2CCOCC2)sc2ccc(F)cc12 | 1.17
N#Cc1cccc(OCCN2CCCC2C(=O)NCC(F)(F)F)c1 (stereo not given) | -0.526

Compound | cytotoxicity at 70.5 h [%]
Cc1nc(C(=O)N(C)C)nn1-c1ccccc1C(C)C | 0.366
CC(C)c1nc(CN2CCN(C(=O)CC3CCCCC3)CC2)no1 | 7.95
Cc1ccc(C)c(CC(=O)NC2(C#N)CCOCC2)c1 | 1.6
C1=C(c2c[nH]c3ncccc23)CCN(Cc2nnc(C3CC3)o2)C1 | 12.3
CC(C)CNC(=O)CNC(=O)NC(c1nccs1)C1CC1 (stereo not given) | 4.02
CC(C)(C)C(=O)NCc1nccn1CCc1ccccc1 | -5.7
CC(C)(O)CNC(=O)NCc1nccn1CCc1ccccc1 | -1.1
Cc1noc(CN2CC=C(c3c[nH]c4ncccc34)CC2)n1 | 20.4
CN(C(=O)NCc1nccn1CCc1ccccc1)C1CCC1 | 1.68
O=C(NCc1nccn1CCc1ccccc1)NCC1(O)CCC1 | 1.18
Cc1noc(CN(CCc2ccco2)Cc2cccc(C#N)c2)n1 | 2.9
Cc1noc(CN(CCc2cccs2)Cc2cccc(C#N)c2)n1 | 0.848
Cc1nc(C(=O)N(C)CC2CCCO2)nn1-c1ccccc1C(C)C (stereo not given) | -5.46
CC(C)(C)OC(=O)N1CCC(C(=O)NCc2ccccc2)C1 (stereo not given) | 7.59
CCN(CC1CCOC1)C(=O)c1ccc(N(C)C)cc1F (stereo not given) | -1.53
N#Cc1cccc(OCCN2CCCC2C(=O)Nc2nccs2)c1 (stereo not given) | 29
c1ccc(-c2nc(CNC3CCCN(c4cccnn4)C3)no2)cc1 (stereo not given) | 18.6
NC(=O)c1ccc(N2CCCCC2)c(NC(=O)c2ccc(F)cc2F)c1 | 3.5
Clc1ccc(C2(CNC3=NCCN3)CCCCC2)cc1 | 26.8
